US20050053612A1, “Nucleotide regulation of immune responses” (priority 2003, published 2005)
“Also recorded” adds a separate entry of the source.

Columns and labels:
[1] = tested on: group A streptococcus (GAS); design: species or system Streptococcus pyogenes; details: in vivo
[2] = tested on: XS106 cells; experiment: FACS analysis of I-A, CD80 and CD86 expression; format: cell-based, mouse; details: for effect on ATPγS-enhanced CD80 expression: pre-incubated with 300 μM oATP for 2 hours, then GM-CSF/LPS and ATPγS
[3] = tested on: XS106
[4] = tested on: Langerhans cells; experiment: HDK-1 assay: antigen presentation by Langerhans cells, IFNγ by ELISA; format: cell-based, BALB/c mice
[5] = tested on: XS106 cells; experiment: Cytokine content of supernatants by ELISA; format: cell-based, mouse
[6] = tested on: BALB/c mice; experiment: Contact hypersensitivity (CHS) assay, DNFB, ear swelling; details: mouse, in vivo
[7] = tested on: CAF1 mice; experiment: Tumor vaccine: delayed-type hypersensitivity to tumor-associated antigens (TAA), footpad swelling; details: mouse, in vivo
[8] = tested on: XS 106A cell

## Nc1ncnc2c1ncn2[C@@H]1O[C@H](COP(=O)(O)OP(=O)(O)OP(O)(O)=S)[C@@H](O)[C@H]1O [ATPγS]
[1]
  lesion size vs mice immunized with killed GAS alone: much smaller lesions
  mean areas of the lesions: 2.80±1.11 mm^2
[2]
  expression of CD80: enhanced; also recorded: enhances expression
  expression of CD86: enhanced; also recorded: enhances expression
  expression of I-A: enhanced; also recorded: enhances expression
[3]
  concentrations that induce apoptosis: greater than 10^−6 molar
[4]
  IFNγ release by HDK-1 cells (presentation of KLH by LCs): dose-dependent increase; also recorded: augmented the ability of LCs to present KLH
  IFNγ, LCs incubated with ATPγS in the absence of KLH: only background levels; also recorded: did not significantly change the background response
  concentration at which the IFNγ response begins to decrease: greater than 10^−6 molar
[5]
  release of IL-1β: significantly increased; also recorded: significant increase
  release of IL-10: decreasing release; also recorded: decrease
  release of IL-12: significantly increased; also recorded: significant increase
[6]
  ear swelling (contact hypersensitivity response): significantly augmented; also recorded: greatest ear swelling; also recorded: increased response upon challenge
  ear swelling (contact hypersensitivity response), ATPγS injected at a site distant from that of immunization: no effect on the response
  ear swelling, ATPγS only (not immunized with DNFB): least ear swelling
[7]
  delayed-type hypersensitivity (DTH) response, footpad swelling: significantly enhanced; also recorded: significantly greater DTH response

## Nc1ncnc2c1ncn2[C@@H](C=O)O[C@@H](C=O)COP(=O)(O)OP(=O)(O)OP(=O)(O)O [oxidized ATP, reference compound]
[2]
  effect on ATPγS-enhanced CD80 expression: inhibits the effect of ATPγS on CD80 expression
[2]; listed as oATP
  effect on ATPγS-enhanced CD80 expression: inhibited
[5]; data not shown
  effect on ATPγS-induced IL-1β secretion: significantly inhibited

## Nc1ncnc2c1ncn2[C@@H]1O[C@H](COP(=O)(O)OP(=O)(O)OP(=O)(O)O)[C@@H](O)[C@H]1O [ATP]
[5]; ATP, significant at 10^−3 M and 10^−4 M, NS at 10^−5 M and 10^−6 M
  secretion of IL-1β: greatly augmented secretion
[8]
  cell viability: No effect on viability
